These results are taken from patent US9775871B2, “Herbal compositions and methods for treating hepatic disorders” (priority 2007, dated 2017).

This assay has as its system primary cultures of rat hepatocytes. The assay can be described thus: Production of free radicals (DCFH-DA fluorescence) after t-BOOH exposure.

Consider `O=c1c(O)c(-c2ccc(O)c(O)c2)oc2cc(O)cc(O)c12` [Quercetin, quercetin], for which the “Free radicals (%)” value amounted to 51.5 ± 2.1% (5 μM, Table 1, ratio of t-BOOH positive control, positive control of the test); 18.8 ± 1.2% (25 μM, Table 1, ratio of t-BOOH positive control, positive control of the test); 13.2 ± 5.6 % (25 μM, Table 2, ratio of t-BOOH control (100), median ± SE).
